The text below walks through data of patent publication US9951063B2, “8-(piperazin-1-yl)-1,2,3,4-tetrahydro-isoquinoline derivatives” (IDORSIA PHARMACEUTICALS LTD, priority 2014, dated 2018).

For the assay, the target named is human CXCR3A (Homo sapiens (Human), UniProt P49682). Put plainly: FLIPR assay (inhibition of CXCL10-induced calcium signal). Format: cell-based. Conditions: engineered CHO-K1 cells expressing human CXCR3A coupled to Galpha(16); Fluo-4-AM; CXCL10 agonist 20 nM; mean values where determined several times. In short, it runs like this:
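CHO-K1 cells expressing human CXCR3A coupled to Gα16 were loaded with Fluo-4-AM for 1 h in HBSS/20 mM Hepes pH 7.4 with probenecid. Compound was added, then CXCL10 (20 nM as dispensed). Baseline-subtracted peak fluorescence gave inhibition curves and IC50, averaged over repeats.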

The term IC50 denotes the concentration at which inhibition is half-maximal.

Chain of human CXCR3A (P49682 whole entry): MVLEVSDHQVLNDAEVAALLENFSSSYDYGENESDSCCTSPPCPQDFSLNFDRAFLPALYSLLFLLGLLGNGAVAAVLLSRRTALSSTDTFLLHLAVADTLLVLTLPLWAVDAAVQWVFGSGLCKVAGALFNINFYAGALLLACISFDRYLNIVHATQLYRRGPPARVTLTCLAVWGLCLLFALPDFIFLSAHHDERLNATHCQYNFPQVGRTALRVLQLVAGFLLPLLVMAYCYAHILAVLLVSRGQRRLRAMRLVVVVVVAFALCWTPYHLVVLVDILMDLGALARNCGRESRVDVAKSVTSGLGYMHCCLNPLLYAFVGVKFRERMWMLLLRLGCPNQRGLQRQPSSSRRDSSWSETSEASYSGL

On to `Cc1nc(C)n(CC(=O)N2CCN(c3cc(F)c(F)c4c3CN(c3cnc(C(F)(F)F)nc3)CC4)C[C@H]2C)n1` [Example 147, 1-{(R)-4-[5,6-Difluoro-2-(2-trifluoromethyl-pyrimidin-5-yl)-1,2,3,4-tetrahydro-isoquinolin-8-yl]-2-methyl-piperazin-1-yl}-2-(3,5-dimethyl-[1,2,4]triazol-1-yl)-ethanone], for which the half-maximal inhibitory concentration (IC50) worked out at 8.58 nM.
